Reference: US10426758B2, “Sibiriline derivatives for use for preventing and/or treating disorders associated with cellular necroptosis” (Institut National de la Sante et de la Recherche Medicale …, priority 2015, dated 2019)

What was measured:
[1] = tested on: Jurkat Fadd−/−; test: Necroptosis induced by TNF in Jurkat Fadd−/−, MTS Cell Proliferation assay; assay type: cell-based; conditions: Homo sapiens
Procedure: (§1) Besides, the IC50 of compound 3, compound 6 and necrostatin-1 (Nec-1) were determined in mouse or human cellular models of necroptosis induced by FasL+zVAD-fmk (a pan-caspase inhibitor) or TNF, and by using two cytotoxic assays (MTS Cell Proliferation assay or intracellular ATP level). As shown in the table below, compound 3 and compound 6 inhibit TNF-α or FasL-induced necroptosis with IC50 almost similar to those obtained with Nec-1.

[2] = tested on: Jurkat FADD-deficient I 2.1 cell line; test: Cell-based screening: TNF-α-induced necroptosis in Jurkat FADD-deficient cells, MTS viability assay; parameters: species or system human; conditions: for EC50: Homo sapiens, Jurkat, necroptosis induced by 10 ng/ml TNF-α, 24 hours, MTS viability; for inhibition of necroptosis induced by TNF-α (figure legend): human T lymphocyte, Jurkat FADD deficient cell line
Description: TNF-α can induce necroptosis in Jurkat cells (human T lymphocytes) when FADD is deleted. This model was used to screen various libraries of chemical compounds for characterization of new inhibitors of cellular necroptosis. Details on this cell-based assay can be found in (Miao and Degterev, Methods Mol. Biol. 2009, 559, 79-93). The Jurkat FADD-deficient I 2.1 cell line used was purchased from ATCC and was maintained in RPMI 1640 medium (Gibco) containing Glutamax and 15% fetal calf serum (Life Technology). Necroptosis was induced by addition of 10 ng/ml of human recombinant TNF-α (Life Technology). Necrostatin-1 (Nec-1, Enzo Life Sciences) was used as model necroptosis inhibitor. Cells were maintained in 75 cm^2 flask and passed every 2 or 3 days. Chemical collections analysed were formatted in 96-well plates with 80 molecules per plates at 10 mM in 100% DMSO. For each collection plate, 2 cell plates were seeded (one necroptosis-induced with TNF-α and the other without TNF-α). Cells were seeded at 20000 cells/well, in 40 μl of medium, in a 96-well clear, flat bottom plate (CytoOne, Starlab) before treatment. Then, 40 μl of medium with or without TNF-α at 25 ng/ml were added to all wells in the corresponding plate. Immediately after TNF-α addition, 20 μl of diluted compound at 50 μM were added to the plates. Final concentration of each chemical compound was 10 μM at 0.1% DMSO. Four positives (Nec-1 at 10 μM final) and four negative (DMSO) controls were used in each plate to validate the assay. Cells were incubated at 37° C., 5% CO2 for 24 hours before performing MTS viability assay, described hereafter. Compounds were diluted before to treat cells. Liquid handling was performed using the Nimbus Microlab liquid handler (Hamilton Robotics) under microbiological safety workbench. The 10 mM compounds were diluted at 50 μM directly in cell medium.

[3] = tested on: L929sAhFas; test: Necroptosis induced by FasL + zVAD-fmk in L929sAhFas, MTS Cell Proliferation assay; assay type: cell-based; conditions: Mus musculus
Procedure: as §1

[4] = tested on: Jurkat Fadd−/−; test: Necroptosis induced by TNF in Jurkat Fadd−/−, intracellular ATP level; assay type: cell-based; conditions: Homo sapiens
Procedure: as §1

[5] = tested on: L929sAhFas; test: Necroptosis induced by FasL + zVAD-fmk in L929sAhFas, intracellular ATP level; assay type: cell-based; conditions: Mus musculus
Procedure: as §1

[6] = biological target: T1, Human RIPK1 full length GST-tagged (Homo sapiens, UniProt Q13546); test: RIPK1 autophosphorylation assay; assay type: biochemical; conditions: radioactively labeled RIPK1, [γ-32P] ATP, 30 minutes at 30° C.
T1 construct: Human RIPK1 full length GST-tagged; made in house; host or cells: Sf9 insect cells (Bac-to-Bac baculovirus system)
T1 sequence (Q13546 1-671): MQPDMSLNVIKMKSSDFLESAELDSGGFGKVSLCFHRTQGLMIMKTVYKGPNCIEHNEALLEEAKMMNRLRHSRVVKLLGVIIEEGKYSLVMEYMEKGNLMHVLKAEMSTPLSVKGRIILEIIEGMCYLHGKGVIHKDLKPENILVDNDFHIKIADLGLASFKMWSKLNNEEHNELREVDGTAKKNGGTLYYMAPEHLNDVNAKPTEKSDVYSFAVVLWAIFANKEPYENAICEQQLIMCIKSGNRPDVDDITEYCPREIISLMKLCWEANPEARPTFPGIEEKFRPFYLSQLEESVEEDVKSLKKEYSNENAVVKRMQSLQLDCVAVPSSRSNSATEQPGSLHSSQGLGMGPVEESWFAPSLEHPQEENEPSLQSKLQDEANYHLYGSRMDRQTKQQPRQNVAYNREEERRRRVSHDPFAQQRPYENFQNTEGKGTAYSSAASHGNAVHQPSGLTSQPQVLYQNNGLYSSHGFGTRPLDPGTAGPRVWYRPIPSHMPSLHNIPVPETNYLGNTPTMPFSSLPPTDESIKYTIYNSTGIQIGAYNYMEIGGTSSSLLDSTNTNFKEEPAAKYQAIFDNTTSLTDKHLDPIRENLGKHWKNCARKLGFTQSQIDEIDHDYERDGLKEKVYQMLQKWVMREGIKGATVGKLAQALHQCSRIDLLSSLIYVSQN
Procedure: Human RIPK1 full length GST-tagged was baculovirally expressed in Sf9 cells according to manufacturer's instructions (Bac-to-Bac expression system, Invitrogen) and purified using gluthation-sepharose beads (GE Healthcare). The elution was made in 50 mM Tris-HCl, pH 8.0 buffer supplemented with 30 mM reduced gluthatione (Sigma). The protocol used to detect the enzymatic activity is adapted from Miao and Degterev (Methods Mol. Biol. 2009, 559, 79-93). Kinase reaction was initiated mixing 5 μl of eluted RIPK1, 5 μl of 3× kinase reaction buffer (5 mM MOPS pH 7.2, 2.5 mM β-glycerophosphate, 4 mM MgCl2, 2.5 mM MnCl2, 1 mM EGTA, 0.4 mM EDTA, 50 μg/ml BSA, 0.05 mM DTT), 2 μl H2O and 3 μl of the tested molecule. The mixture was kept on ice for 10 minutes. During the incubation, the ATP solution was prepared by mixing 5 μl of 3× kinase reaction buffer, 4 μl H2O, 6 μl cold ATP at 150 μM and 2 μCi of [γ-^32P] ATP. Add the ATP solution and the tested inhibitor to the kinase and incubate for 30 minutes at 30° C. To stop the enzymatic reaction, 5 μl of loading buffer were added and solution was heated for 3 minutes at 95° C. 25 μl of each reaction were loaded per well in pre-cast NuPage 12% Bis-Tris gel (Life Technology). Autophosphorylated RIPK1 band was visualized on radiographic film after 6 h exposition at −80° C.

[7] = tested on: murine model of acute hepatitis (concanavalin A-induced hepatitis); test: Concanavalin A-induced acute hepatitis in mice; assay type: in vivo, C57Bl/6 WT mice; conditions: Nec-1s 6.25 mg/kg intraperitoneal 1 hour before 12 mg/kg Con A for 10 h
Procedure: We use a murine model of acute hepatitis (concanavalin A-induced hepatitis) that depends on necroptosis induction (Jouan-Lanhouet et al. Semin. Cell. Dev. Biol. 2014, 35, 2-13). Sib is diluted in 50% PBS/50% DMSO.
C57Bl/6 WT mice were pre-treated or not with 3, 6 or 9 mg/kg Sib or 6.25 mg/kg Nec-1s injected by intraperitoneal route 1 hour before treatment or not with 12 mg/kg Con A for 10 h (intravenous route) (50% PBS/50% DMSO, n=5; 50% PBS/50% DMSO+Con A, n=5; 3 mg/kg Sib+Con A, n=5; 6 mg/kg Sib+Con A, n=5; 9 mg/kg Sib+Con A, n=5; 6.25 mg/kg Nec-1s+Con A, n=5).

[8] = tested on: cytochrome P450 CYP1A enzymes in HepG2 cells; test: Ethoxyresorufin O-deethylase (EROD) activity in HepG2 cells; assay type: in vitro ADME, human; conditions: 10 μM, 24 hours
Procedure: EROD activity corresponds to the O-deethylation of ethoxyresorufin and is mainly supported by cytochrome P450 CYP1A enzymes in HepG2 cells. Induction of CYP1A is mediated through the binding of xenobiotics to a cytosolic aryl hydrocarbon receptor AhR.
Human liver cancer cell lines HepG2 were treated with 10 μM of Sib, Nec-1 or Nec-1s for 24 hours. After treatment, HepG2 cells were incubated in PBS containing 5 mM ethoxyresorufin and kinetic reading was performed at 37° C. with spectrofluorometer (SpectraMax Gemini SX) over a 15 min period.

Compound	EC50 [2] [µM]	inhibition of necroptosis induced by TNF-α (figure legend) [2]	other results
c1cnc2[nH]c(-c3ccc4c(c3)OCO4)cc2c1 [compound 6]	1.8	–	IC50 [1]: 7 µM; IC50 [3]: 10 µM; IC50 [4]: 4 µM
CC(C)Oc1ccc(-c2cc3cccnc3[nH]2)cc1 [compound 4, 2-(4-isopropoxyphenyl)-1H-pyrrolo[2,3-b)pyridine]	0.9	dose-dependent inhibition	–
CN1C(=O)C(Cc2c[nH]c3ccccc23)NC1=S (centres unmarked) [Nec-1, necrostatin-1, reference compound]	–	–	IC50 [5]: 10 µM; IC50 [1]: 1.3 µM; IC50 [3]: 10 µM; IC50 [4]: 1.3 µM
CCOc1ccc(-c2cc3c(Cl)ccnc3[nH]2)cc1 [compound 7, 4-chloro-2-(4-ethoxyphenyl)-1H-pyrrolo[2,3-b]pyridine]	2	dose-dependent inhibition	inhibition of RIPK1 autophosphorylation [6]: dose-dependent inhibition
CN1C(=O)NC(Cc2c[nH]c3c(Cl)cccc23)C1=O (centres unmarked) [Nec-1s, reference compound]	–	–	AST and ALT levels and protection from Con A-induced hepatitis [7]: has a tendency to decrease AST and ALT levels and to protect mice from Con A-induced hepatitis; induction of EROD activity [8]: do not induce EROD activity
CCOc1ccc(-c2cc3cccnc3[nH]2)cc1 [compound 3, 2-(4-ethoxyphenyl)-1H-pyrrolo[2,3-b]pyridine]	0.7	dose-dependent inhibition	IC50 [5]: 2.5 µM; IC50 [1]: 2.7 µM; inhibition of RIPK1 autophosphorylation [6]: dose-dependent inhibition; IC50 [4]: 1.3 µM
CCOc1ccc(-c2cc3cc(-c4ccc(OC)c(OC)c4)cnc3[nH]2)cc1 [compound 8, 5-(3,4-dimethoxyphenyl)-2-(4-ethoxyphenyl)-1H-pyrrolo[2,3-b]pyridine]	1.5	dose-dependent inhibition	–
c1cnc2[nH]c(-c3ccc(OC4CCCC4)cc3)cc2c1 [compound 9, 2-(4-(cyclopentyloxy)phenyl)-1H-pyrrolo[2,3-b]pyridine]	3	dose-dependent inhibition	–
c1cnc2[nH]c(-c3ccc4c(c3)OCCO4)cc2c1 [compound 5, 2-(1,4-benzodioxanyl)-1H-pyrrolo[2,3-b]pyridine]	1.4	–	–
COc1ccc(-c2cc3cccnc3[nH]2)cc1 [compound 1, 2-(4-methoxyphenyl)-1H-pyrrolo[2,3-b]pyridine]	0.4	dose-dependent inhibition	–
CCOc1ccc(-c2cc3cc(Br)cnc3[nH]2)cc1 [compound 10, 5-bromo-2-(4-ethoxyphenyl)-1H-pyrrolo[2,3-b]pyridine]	–	slight dose-dependent inhibition	–
